Data: US12534458B2, “Spiropiperidine allosteric modulators of nicotinic acetylcholine receptors” (Merck Sharp & Dohme LLC, priority 2019, dated 2026)

These compounds were tested against human α7 nAChR (Homo sapiens (Human), UniProt P36544) (assay: Automated patch-clamp electrophysiology functional assay (Assay A)). Settings: IonFlux HT whole-cell population patch, HEK cell line stably expressing human RIC-3 and human α7, 40 μM acetylcholine.
Type: cell-based
Protocol: The α7 nAChR positive allosteric modulator (PAM) activity of the present compounds may be tested using assays known in the art. The α7 nAChR PAMs described herein have activities in an automated patch-clamp electrophysiology functional assay as described in the examples. The assay was performed using the IonFlux HT in a whole-cell, population patch configuration. See Golden et al. Assay Drug Dev. Technol. (2011) 9:608-619. The compounds were assessed for their ability to modulate the function of the human α7 nAChR stably expressed in a HEK cell line both in the presence, and in the absence of the natural α7 agonist acetylcholine. By performing a series of such measurements at different concentrations, the effective concentration of the α7 nAChR PAMs (EC50) was determined. See Spencer et al. Assay Drug Dev. Technol. (2012) 10:313-324.
Direct activation of α7 (agonism), and potentiation of acetylcholine-evoked α7 currents was determined as follows:
Automated patch-clamp electrophysiology was performed using the IonFlux HT (Fluxion Biosciences Inc., San Francisco, CA) in the whole-cell, population patch configuration. Test compounds were assessed for their ability to modulate the function of the α7 nicotinic acetylcholine receptor both in the presence, and in the absence of the natural α7 agonist acetylcholine. A HEK cell line stably expressing both human RIC-3 and human α7 (PrecisION hnAChR α7/RIC-3, Eurofins Pharma, St. Charles, MO) was cultured in 175 cm^2 triple-layer tissue culture flasks to no more than 90% confluency in DMEM/F-12 growth media supplemented with 10% heat-inactivated fetal bovine serum, 1% non-essential amino acids, 0.625 μg/mL Puromycin, and 400 μg/mL Geneticin. Immediately prior to assay, cells were detached by first aspirating growth media, rinsing with Dulbecco's phosphate buffered saline, and then adding 10 mL of Accutase (Innovative Cell Technologies, San Diego, CA) to the flask and then incubating at 37° C. for 5 minutes. Detached cells were then recovered by the addition of 40 mL of CHO-serum-free media supplemented with 25 mM HEPES, and rocked gently in a 50 mL conical tube for 20 minutes prior to patch-clamp assay. After recovery, cells were pelleted by centrifugation at 1,000 RPM for 1 minute in a compact bench top centrifuge; recovery media was aspirated and cells were resuspended in external recording solution (150 mM NaCl, 5 mM KCl, 2 mM CaCl2), 1 mM MgCl2, 10 mM HEPES, 12 mM dextrose) to a density of 5.0×10^6 cells/mL. The cell suspension was added to the cell inlet wells on an IonFlux HT population patch plate which had previously been rinsed and primed with deionized H2O. Test compounds were serially diluted in DMSO and then resuspended to the final test concentration in external recording solution, with, or without 40 μM acetylcholine added to the external recording solution; test compounds were then transferred to the IonFlux HT population patch plate. Internal recording solution (110 mM TrisPO4, 28 mM TrisBase, 0.1 mM CaCl2), 2 mM MgCl2, 11 mM EGTA, 4 mM MgATP) was added to the internal recording solution inlet wells on the IonFlux HT patch plate previously loaded with cells and test compounds, and the plate loaded into the IonFlux HT instrument. A protocol was executed on the IonFlux HT to trap the cells, break into the cells, and establish the whole-cell recording configuration; cells were voltage-clamped at a holding potential of −60 mV for the duration of the experiment, all experiments were conducted at room temperature, and the IonFlux HT injection pressure was 8 psi for solution applications. Upon establishing the whole-cell configuration, external recording solution was perfused into the recording chambers for 120 seconds and then 40 μM acetylcholine was applied for 1 second and immediately washed off with external recording solution for 60 seconds. […]

Chain of human α7 nAChR (P36544 23-502): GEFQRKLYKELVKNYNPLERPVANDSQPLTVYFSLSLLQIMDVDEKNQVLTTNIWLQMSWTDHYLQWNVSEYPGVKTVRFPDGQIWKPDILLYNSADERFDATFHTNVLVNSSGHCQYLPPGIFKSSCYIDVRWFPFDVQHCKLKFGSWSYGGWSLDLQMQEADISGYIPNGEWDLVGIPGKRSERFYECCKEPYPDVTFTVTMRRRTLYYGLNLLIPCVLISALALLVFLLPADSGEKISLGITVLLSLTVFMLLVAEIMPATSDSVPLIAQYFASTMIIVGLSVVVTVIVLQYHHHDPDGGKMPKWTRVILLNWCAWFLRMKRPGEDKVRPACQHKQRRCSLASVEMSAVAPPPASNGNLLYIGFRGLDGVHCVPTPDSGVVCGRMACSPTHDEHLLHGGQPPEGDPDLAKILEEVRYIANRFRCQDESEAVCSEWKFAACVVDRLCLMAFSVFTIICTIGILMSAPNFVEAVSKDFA

EC50 [nM]	Compound
1600	NS(=O)(=O)N1CCC2(CC1)C(c1cccc(-c3ccccc3)n1)C2(F)F (stereo not shown) [Example 2, 1,1-Difluoro-2-(6-phenylpyridin-2-yl)-6-azaspiro[2.5]octane-6-sulfonamide]
830	NS(=O)(=O)N1CCC2(CC1)[C@H](c1cccc(-c3ccccc3C3CC3)n1)C2(F)F [Example A2, (2R)-2-[6-(2-Cyclopropylphenyl)pyridin-2-yl]-1,1-difluoro-6-azaspiro[2.5]octane-6-sulfonamide]
2200	Cc1ccccc1-c1cccc([C@@H]2C(F)(F)C23CCN(S(N)(=O)=O)CC3)n1 [Example 6, (2R)-1,1-Difluoro-2-[6-(2-methylphenyl)pyridin-2-yl]-6-azaspiro[2.5]octane-6-sulfonamide]
4400	NS(=O)(=O)N1CCC2(CC1)[C@@H](c1cccc(-c3ccc(C(F)(F)F)cc3)n1)C2(F)F [Example B1, (2S)-1,1-Difluoro-2-{6-[4-(trifluoromethyl)phenyl]pyridin-2-yl}-6-azaspiro[2.5]octane-6-sulfonamide]
850	NS(=O)(=O)N1CCC2(CC1)C(c1cccc(-c3conc3C3CC3)n1)C2(F)F (single isomer, unassigned) [Example C2, 2-[6-(3-Cyclopropylisoxazol-4-yl)pyridin-2-yl]-1,1-difluoro-6-azaspiro[2.5]octane-6-sulfonamide]

Continued, compound first:

Compound	EC50 [nM]
NS(=O)(=O)N1CCC2(CC1)[C@H](c1nc3ccccc3o1)C2(F)F [Example A3, (2R)-2-(1,3-Benzoxazol-2-yl)-1,1-difluoro-6-azaspiro[2.5]octane-6-sulfonamide]	1000
NS(=O)(=O)N1CCC2(CC1)[C@H](c1nccc(-c3ccccc3)n1)C2(F)F [Example 4, (2R)-1,1-Difluoro-2-(4-phenylpyrimidin-2-yl)-6-azaspiro[2.5]octane-6-sulfonamide]	1900
NS(=O)(=O)N1CCC2(CC1)[C@H](c1cc(-c3ccccc3)ccn1)C2(F)F [Example A1, (2R)-1,1-Difluoro-2-(4-phenylpyridin-2-yl)-6-azaspiro[2.5]octane-6-sulfonamide]	190
NS(=O)(=O)N1CCC2(CC1)C(c1cccc(-c3cccc(C(F)(F)F)c3)c1)C2(F)F (racemic) [Example C1, 1,1-Difluoro-2-[3′-(trifluoromethyl)biphenyl-3-yl]-6-azaspiro[2.5]octane-6-sulfonamide]	430
NS(=O)(=O)N1CCC2(CC1)CC2c1cccc(-c2ccccc2)n1 (stereo not shown) [Example 3, 1-(6-Phenylpyridin-2-yl)-6-azaspiro[2.5]octane-6-sulfonamide]	3000
NS(=O)(=O)N1CCC2(CC1)[C@@H](c1cc(-c3ccccc3)ccn1)C2(F)F [Example B2, (2S)-1,1-Difluoro-2-(4-phenylpyridin-2-yl)-6-azaspiro[2.5]octane-6-sulfonamide]	1700
NS(=O)(=O)N1CCC2(CC1)[C@H](c1cccc(-c3ccc(C(F)(F)F)cc3)n1)C2(F)F [Example 5, (2R)-1,1-Difluoro-2-{6-[4-(trifluoromethyl)phenyl]pyridin-2-yl}-6-azaspiro[2.5]octane-6-sulfonamide]	340
NS(=O)(=O)N1CCC2(CC1)C[C@H]2c1nc2ccccc2s1 [Example 1, (1R)-1-(1,3-Benzothiazol-2-yl)-6-azaspiro[2.5]octane-6-sulfonamide]	930
